SMILES strings stand for the structures. pEC50: −log10 of the molar value.

This experiment addresses recombinant DYRK1A kinase (Homo sapiens (Human), UniProt Q13627). The experiment is described as follows: DYRK1A kinase assay (Ser/Thr 18 peptide Z-lyte FRET assay). Format: biochemical. The following applies: recombinant DYRK1A 0.25 µg/mL, ATP 15 µM, Ser/Thr peptide 18 4 µM, one hour at room temperature; table head prints EC50, method says IC50. A digest of the protocol:
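Z-lyte FRET format: 1 h room-temperature reaction of 15 µM ATP, 4 µM Ser/Thr 18 peptide and 0.25 µg/mL recombinant human DYRK1A, in duplicate over 11 compound concentrations up to 10 µM. IC50 was derived by non-linear regression of percent phosphorylation calculated from coumarin/fluorescein emission ratios.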
As usually defined, the pEC50 is the negative decadic logarithm of the EC50, by convention in mol/L. `CO[C@@H]1COCC[C@H]1Nc1ncc2c(-c3ccc4nc(C)n(CC(F)F)c4n3)ccn2n1` [Compound 1867, 5-(3-(2,2-Difluoroethyl)-2-methyl-3H-imidazo[4,5-b]pyridin-5-yl)-N-((3S,4R)-3-methoxytetrahydro-2H-pyran-4-yl)pyrrolo[2,1-f][1,2,4]triazin-2-amine]: the pEC50 was 7.49. To `Cc1nc2ccc(-c3ccn4nc(N[C@H]5CC[C@@](C)(O)CC5)ncc34)nc2n1CC(F)(F)F` [Compound 1868, cis-1-Methyl-4-((5-(2-methyl-3-(2,2,2-trifluoroethyl)-3H-imidazo[4,5-b]pyridin-5-yl)pyrrolo[2,1-f] [1,2,4]triazin-2-yl)amino)cyclohexan-1-ol] belongs 8.05.

Take `Cc1nc2ccc(-c3ccn4nc(N[C@H]5CC[C@@](C)(O)CC5)ncc34)nc2n1CC(C)(C)C#N` [Compound 1869, 3-(5-(2-((cis-4-Hydroxy-4-methylcyclohexyl)amino)pyrrolo[2,1-f][1,2,4]triazin-5-yl)-2-methyl-3H-imidazo[4,5-b]pyridin-3-yl)-2,2-dimethylpropanenitrile]: the negative-log EC50 (pEC50) is 7.80. Consider `Cc1nc2ccc(-c3ccn4nc(NC5CCC(F)(F)CC5)ncc34)nc2n1CC(C)(C)O` [Compound 1870, 1-(5-(2-((4,4-Difluorocyclohexyl)amino)pyrrolo[2,1-f][1,2,4]triazin-5-yl)-2-methyl-3H-imidazo[4,5-b]pyridin-3-yl)-2-methylpropan-2-ol], for which the pEC50 is 7.11.

Turning to `Cc1nc2ccc(-c3ccn4nc(NC5CCOCC5)ncc34)nc2n1CC(C)(C)O` [Compound 1871, 2-Methyl-1-(2-methyl-5-(2-((tetrahydro-2H-pyran-4-yl)amino)pyrrolo[2,1-f][1,2,4]triazin-5-yl)-3H-imidazo[4,5-b]pyridin-3-yl)propan-2-ol], the negative logarithm of the EC50 (pEC50) was 7.14.

As to `Cc1nc2ccc(-c3ccn4nc(N[C@H]5CC[C@@](C)(O)CC5)ncc34)nc2n1CC(=O)N(C)C` [Compound 1872, 2-(5-(2-((cis-4-Hydroxy-4-methylcyclohexyl)amino)pyrrolo[2,1-f][1,2,4]triazin-5-yl)-2-methyl-3H-imidazo[4,5-b]pyridin-3-yl)-N,N-dimethylacetamide], the pEC50 was 6.30. Consider `Cc1nc2ccc(-c3ccn4nc(NC5CCC(F)(F)CC5)ncc34)nc2n1CC1CNC1` [Compound 1873, 5-(3-(Azetidin-3-ylmethyl)-2-methyl-3H-imidazo[4,5-b]pyridin-5-yl)-N-(4,4-difluorocyclohexyl)pyrrolo[2,1-f][1,2,4]triazin-2-amine], for which the pEC50 was 6.88. To `Cc1nc2ccc(-c3ccn4nc(N[C@H]5CC[C@@](C)(O)CC5)ncc34)nc2n1CC1COC1` [Compound 1875, cis-1-Methyl-4-((5-(2-methyl-3-(oxetan-3-ylmethyl)-3H-imidazo[4,5-b]pyridin-5-yl)pyrrolo[2,1-f][1,2,4]triazin-2-yl)amino)cyclohexan-1-ol] belongs 7.85. For `[2H]C([2H])([2H])O[C@H]1CC[C@@H](Nc2ncc3c(-c4cnc5nc(C)n(CC(F)F)c5c4)ccn3n2)CC1` [Compound 1876] the value was 8.70. With `Cc1nc2ncc(-c3ccn4nc(N[C@H]5CC[C@@H](OCC(F)F)CC5)ncc34)cc2n1CC(F)F` [Compound 1877], the pEC50 is 8.70. For `Cc1nc2ncc(-c3ccn4nc(N[C@H]5CC[C@@H](OCCO)CC5)ncc34)cc2n1CC(F)F` [Compound 1878, 2-((cis-4-((5-(1-(2,2-Difluoroethyl)-2-methyl-1H-imidazo[4,5-b]pyridin-6-yl)pyrrolo[2,1-f][1,2,4]triazin-2-yl)amino)cyclohexyl)oxy)ethan-1-ol] the value was 8.70.

In the case of `Cc1nc2ncc(-c3ccn4nc(N[C@H]5CC[C@](C)(O)CC5)ncc34)cc2n1CC(F)F` [Compound 1879, trans-4-((5-(1-(2,2-Difluoroethyl)-2-methyl-1H-imidazo[4,5-b]pyridin-6-yl)pyrrolo[2,1-f][1,2,4]triazin-2-yl)amino)-1-methylcyclohexan-1-ol], the pEC50 is 8.70.

With `Cc1nc2ncc(-c3ccn4nc(NC5CCC6(CC5)OCCO6)ncc34)cc2n1CC(F)F` [Compound 1880, 5-(1-(2,2-Difluoroethyl)-2-methyl-1H-imidazo[4,5-b]pyridin-6-yl)-N-(1,4-dioxaspiro[4.5]decan-8-yl)pyrrolo[2,1-f][1,2,4]triazin-2-amine], the pEC50 is 8.52. To `Cc1nc2ncc(-c3ccn4nc(NC5CCN(CCF)CC5)ncc34)cc2n1CC(F)F` [Compound 1881, 5-(1-(2,2-Difluoroethyl)-2-methyl-1H-imidazo[4,5-b]pyridin-6-yl)-N-(1-(2-fluoroethyl)piperidin-4-yl)pyrrolo[2,1-f][1,2,4]triazin-2-amine] belongs 8.70; to `Cc1nc2ncc(-c3ccn4nc(NC5CCN(CC(F)F)CC5)ncc34)cc2n1CC(F)F` [Compound 1882, 5-(1-(2,2-Difluoroethyl)-2-methyl-1H-imidazo[4,5-b]pyridin-6-yl)-N-(1-(2,2-difluoroethyl)piperidin-4-yl)pyrrolo[2,1-f][1,2,4]triazin-2-amine], 8.40.

Consider `Cc1nc2ncc(-c3ccn4nc(NC5CCN(CCC(F)(F)F)CC5)ncc34)cc2n1CC(F)F` [Compound 1883, 5-(1-(2,2-Difluoroethyl)-2-methyl-1H-imidazo[4,5-b]pyridin-6-yl)-N-(1-(3,3,3-trifluoropropyl)piperidin-4-yl)pyrrolo[2,1-f][1,2,4]triazin-2-amine], for which the negative logarithm of the EC50 (pEC50) was 8.05. Turning to `Cc1nc2ncc(-c3ccn4nc(N[C@@H]5CCN(C)C[C@@H]5F)ncc34)cc2n1CC(F)F` [Compound 1884, 5-(1-(2,2-Difluoroethyl)-2-methyl-1H-imidazo[4,5-b]pyridin-6-yl)-N-((3S,4R)-3-fluoro-1-methylpiperidin-4-yl)pyrrolo[2,1-f][1,2,4]triazin-2-amine], the pEC50 is 8.15. To `Cc1nc2ncc(-c3ccn4nc(N[C@@H]5CCN(C)C[C@H]5F)ncc34)cc2n1CC(F)F` [Compound 1885, 5-(1-(2,2-Difluoroethyl)-2-methyl-1H-imidazo[4,5-b]pyridin-6-yl)-N-((3R,4R)-3-fluoro-1-methylpiperidin-4-yl)pyrrolo[2,1-f][1,2,4]triazin-2-amine] belongs 8.22; to `Cc1nc2ncc(-c3ccn4nc(N[C@H]5CCN(C)C[C@@H]5F)ncc34)cc2n1CC(F)F` [Compound 1886, 5-(1-(2,2-Difluoroethyl)-2-methyl-1H-imidazo[4,5-b]pyridin-6-yl)-N-((3S,4S)-3-fluoro-1-methylpiperidin-4-yl)pyrrolo[2,1-f][1,2,4]triazin-2-amine], 8.52. With `Cc1nc2ncc(-c3ccn4nc(N[C@H]5CCN(C)C[C@H]5F)ncc34)cc2n1CC(F)F` [Compound 1887, 5-(1-(2,2-Difluoroethyl)-2-methyl-1H-imidazo[4,5-b]pyridin-6-yl)-N-((3R,4S)-3-fluoro-1-methylpiperidin-4-yl)pyrrolo[2,1-f][1,2,4]triazin-2-amine], the pEC50 is 7.51. Consider `Cc1nc2ncc(-c3ccn4nc(NC5CCN(C(=O)C(C)C)CC5)ncc34)cc2n1CC(F)F` [Compound 1888, 1-(4-((5-(1-(2,2-Difluoroethyl)-2-methyl-1H-imidazo[4,5-b]pyridin-6-yl)pyrrolo[2,1-f][1,2,4]triazin-2-yl)amino)piperidin-1-yl)-2-methylpropan-1-one], for which the pEC50 was 8.52.

The values are drawn from US20230312605A1, “PYRROLO[2,1-F][1,2,4]TRIAZINES AND PREPARATION AND USES THEREOF” (BioSplice Therapeutics, Inc., priority 2021, published 2023).
